For 89 compounds, melting point results are on record in a melting point compilation (Tetko et al.; mined from patent text by program, amines drawn as free bases though some values may be those of a salt).

Usually melting point stands for the temperature, or range, at which the solid turns liquid. `O=c1nc(-c2cccc(-c3ccccc3)n2)sc2ccccc12` displayed a melting point of 195 to 197 °C.

Consider `Cc1cccc(C(N)c2ccc3nc(NC4CCN(CCO)CC4)n(Cc4nc(C)ccc4O)c3c2)c1` (centres undefined), for which the melting point came to 137 °C.

`C=CCSc1nc(=O)n(-c2ccsc2)cc1F` gave a melting point of 125 to 127 °C.

The compound `Cc1ccccc1NC(=O)CN1C[C@@H](C)N(c2ncnc3sccc23)[C@@H](C)C1` displayed a melting point of 174 to 175 °C.

In turn, `c1cc(Cn2ncc3c(N4CCNCC4)ncnc32)ccn1` came in with a melting point of 121 °C.

`COc1cccc(C(=O)Nc2ccc(N3CCN(CC(N)=O)CC3)cc2)c1-c1ccc(C(C)C)cc1` gave a melting point of 207 to 209 °C.

As to `CC(=O)Nc1c(C)ccc(O)c1C`, the melting point is 190 to 195 °C.

Regarding `COC(=O)c1cccc(COc2ccc(S(=O)(=O)c3ccc(C)nc3Nc3c(C)cc(C)cc3C)cc2)c1`, the melting point lay in the range of 148 to 150 °C.

`Cc1cnc2c(C#N)cnn2c1` registered a melting point of 193 to 194 °C.

Compound `CCOc1cccnc1CO` registered a melting point of 74.5 to 76 °C.

`O=C(N[C@@H](Cc1ccccc1)[C@H]1CO1)OCc1ccccc1`: the melting point lay within 102 to 103 °C.

In turn, `O=[N+]([O-])C(Sc1ccc(Cl)cc1)=C1NCCN1Cc1ccc(Cl)nc1` came in with a melting point of 159 to 161 °C.

Regarding `CN1CCCC1=NC(=O)Nc1ccc(OCc2ccccc2)c(Cl)c1`, the melting point lay within 115 to 117 °C.

`CCOc1cc(C(C)=O)ccc1OCCCN1CCC(c2noc3cc(F)ccc23)CC1` yielded a melting point of 112 to 114 °C.

Regarding `Oc1cccc2c1sc1ccccc12`, the melting point was 167 to 168 °C.

Regarding `CCCCCCCCCCc1ccc(-c2ccc(OC)c(F)c2)cc1`, the melting point is 102 °C.

On to `O=C(O)CCc1oc(-n2ccnc2)nc1-c1ccc(Cl)cc1`, for which the melting point lay within 194 to 195 °C.

`CN(Cc1ccccc1)C(=O)c1c(-c2ccncc2)c(-c2ccc(F)cc2)nn1CCO` gave a melting point of 136 to 138 °C.

`CCOC(=O)/C(=N\OCC(=O)N1CCCCCC1)c1csc(N)n1` had a melting point of 163 to 164 °C.

On to `Cn1ccc2c1CC(C(=O)OCc1ccccc1)C1C(=O)NC(=O)C21` (centres undefined), for which the melting point fell in the range of 189 to 193 °C.

For the compound `O=C(NCc1ccccn1)c1ccc(C(F)(F)F)cc1C(F)(F)F`, the melting point was in the range of 112 to 113 °C.

On to `O=C(c1ccc(F)cc1)C1CCN(CCCN2c3ccccc3-c3ccccc3S2(=O)=O)CC1`, for which the melting point was determined as 114 °C.

Compound `CSc1ccccc1-n1ncc(-c2ccc(S(C)(=O)=O)cc2)c(-c2ccc(F)cc2)c1=O` returned a melting point of 206 to 208 °C.

For the compound `CSc1ccc(C2=C(c3ccc(Cl)cc3)CCC2)cc1`, the melting point fell in the range of 72 to 74 °C.

The compound `CC(C)(C)OC(=O)C=Cc1ccc(C[C@H](NC(=O)OC(C)(C)C)C(=O)OC(c2ccccc2)c2ccccc2)cc1` registered a melting point of 135 to 137 °C.

Turning to `O=C(Cl)c1ccc(OCc2ccccc2)c(OCc2ccccc2)c1`, the melting point was in the range of 92.5 to 94.5 °C.

The compound `COc1cc(C)cc(OC)c1C1=NC(NC(=O)c2cc3ccccc3[nH]2)C(=O)N(C)c2ccccc21` (single isomer, unassigned; (-)) yielded a melting point of 135 °C.

`Cc1cccc(C2=NN(C(=O)c3cccnc3)CC2)c1` yielded a melting point of 99 to 100 °C.

Take `COCC1CCCN1S(=O)(=O)c1ccc2c(c1)C1(OCCCO1)C(=O)N2CCC#N` (centres undefined): the melting point fell in the range of 138 to 141 °C.

`O=C(NCc1ccc(Cl)c(C(F)(F)F)c1)Nc1cccc2[nH]ccc12` gave a melting point of 197 °C.

`CC(=O)Nc1nc(N)nnc1-c1cccc(Cl)c1Cl` had a melting point of 250 to 252 °C.

Consider `CC(=O)NC1(C)CC(C)(C)CC(C)(C)C1`, for which the melting point is 110 °C.

In turn, `COc1ccccc1-c1ccc2cnc(Nc3cccc(C4CCN(C)CC4)c3OC)nn12` returned a melting point of 74 to 89 °C.

As to `CC(C)(C)OC(=O)NCCCCO/N=C(\C(=O)O)c1csc(NC(c2ccccc2)(c2ccccc2)c2ccccc2)n1`, the melting point fell in the range of 120 to 124 °C.

On to `COC1(c2cccc(OCc3ccc(-n4ccnc4-c4ccccc4)cc3)c2)CCOCC1`, for which the melting point was in the range of 117 to 118 °C.

With `CCSc1ccc2c(c1)NC(=O)C2`, the melting point was 125 to 126 °C.

In turn, `NC(=O)c1c(N)cccc1N1CCCC1` registered a melting point of 144 to 146 °C.

With `CC1(N2C(=O)c3cccc(N)c3C2=O)CCC(=O)NC1=O` (centres undefined), the melting point was in the range of 268 to 269 °C.

Regarding `N#CCc1cccc(C#CCOc2ccc(Br)cn2)c1`, the melting point lay in the range of 121 to 123 °C.

Compound `NC(=O)Nc1ccc(CCOCc2ccccc2-c2ccccc2)cc1` returned a melting point of 143 to 144 °C.

In turn, `CC(C)(C)n1cnc2c(O)nc3ccccc3c21` returned a melting point above 300 °C.

With `Cc1ccc(S(=O)(=O)Nc2cccc(CCC(=O)c3cnc4sc(C)c(C)n34)c2)cc1`, the melting point is 180 to 181 °C.

In turn, `N#Cc1ccccc1-n1nc(C2CCN(C#N)CC2)c2ccccc21` gave a melting point of 188 to 190 °C.

Take `c1ccc(COc2ccc(-c3nnn[nH]3)cc2)cc1`: the melting point stood at 228 °C.

For the compound `COc1ccc2cc(Br)ccc2c1C(=O)N(C)C`, the melting point was 124 to 125 °C.

In turn, `Cc1cc(SCc2oc(-c3ccc(C(F)(F)F)cc3)nc2C)ccc1OCC(=O)O` registered a melting point of 156 to 157 °C.

In turn, `c1nc(NCCN2CCOCC2)c2sc3nc(N4CCCC4)c4c(c3c2n1)CCOC4` registered a melting point of 189 to 191 °C.

In the case of `CN1C(=O)C(N)N=C(c2ccccc2)c2cnccc21` (centres undefined), the melting point lay in the range of 109 to 123 °C.

`Cc1ccc(C=NO)cc1Cl` showed a melting point of 66 to 68 °C.

For the compound `CCOCc1nc2c(N)nc3ccccc3c2n1CCCCS(=O)(=O)Nc1ccccn1`, the melting point was 197 to 200 °C.

`CC(C)=NOCc1nc2c(N)nc3cccnc3c2n1CCCNC(=O)OC(C)(C)C`: the melting point fell in the range of 148 to 150 °C.

`CN1CCN(c2n[nH]c3ccc(Cl)cc23)CC1`: the melting point is 172 to 174 °C.

Regarding `CCCCc1nc(=O)n2nc(-c3ccc(F)cc3)cc2[nH]1`, the melting point was 238 °C.

`CC1(CN2CCN(c3ccc(C(F)(F)F)cc3)CC2)Cn2cc([N+](=O)[O-])nc2O1` (centres undefined) returned a melting point of 159 to 160 °C.

Compound `CN1C=C2C=C(S)N=CN2N1` showed a melting point above 300 °C.

`CCCCOC(=O)c1ccc(OC(=O)c2ccc(C(=O)Oc3ccc(C(=O)OCCCC)cc3)cc2)cc1` displayed a melting point of 128 to 131 °C.

`Nc1c(Cl)c(Oc2ccccc2)nc(C(=O)O)c1Cl` showed a melting point of 158 to 160 °C.

The compound `Cc1noc(-c2nc(-c3c(F)cccc3F)nn2C)c1Cl` registered a melting point of 94 to 97 °C.

On to `COCc1nc2c(N)nc3cc(CCC(=O)N4CCOCC4)ccc3c2n1CC(C)(C)O`, for which the melting point is 215 to 217 °C.

Take `COc1cc2c(cc1[N+](=O)[O-])[nH]c(=O)c(=O)n2C`: the melting point worked out at 343 °C.

For the compound `COc1cccc(CCCNC(=O)C2CC2)c1`, the melting point was in the range of 65 to 67 °C.

`Cc1cccc(Cl)c1NC(=O)Nc1ccc(CC(=O)NC(CC(C)C)c2ncc(CCC(=O)O)s2)cc1` (centres undefined) returned a melting point of 160 to 162 °C.

With `CCc1ccc(C(O)CNC(=C[N+](=O)[O-])NCCSCc2cc(C)c(CN(C)C)s2)cc1` (centres undefined), the melting point lay within 112 to 115 °C.

The compound `CCOc1nn(Cc2ccnc(OCc3nc(-c4ccco4)oc3C)c2)cc1CCC(=O)O` returned a melting point of 138 to 139 °C.

For `CCC1(C)SC(N(C)C(=O)NC)=NN1C(=O)C(C)(C)C` (centres undefined), the melting point was in the range of 124 to 127 °C.

As for `NC(=O)Nc1ccc(N2CCN(c3ccncc3)CC2)cc1`, the melting point is above 250 °C.

In the case of `OC(Cn1ccnc1)c1ccccc1` (centres undefined), the melting point is 146 to 148 °C.

The compound `CCOC(=O)CNC(=O)Nc1ccc(C(=N)NC(=O)OC(C)(C)C)cc1` yielded a melting point of 107 to 110 °C.

Compound `Nc1ccc([N+](=O)[O-])cc1OCCCCOc1cc([N+](=O)[O-])ccc1N` came in with a melting point of 226 to 228 °C.

Consider `O=C(Cn1cc(Cl)cnc1=O)c1ccc([N+](=O)[O-])cc1`, for which the melting point was 232 to 236 °C.

`O=C(O)/C(=N/OCc1ccccc1)c1ccc(OCCOc2ccc3ccccc3c2)s1` had a melting point of 103 to 104 °C.

`COC(=O)C1=C(C)NC(c2ncsc2Cl)=NC1c1ccc(F)cc1` (centres undefined) came in with a melting point of 118 to 122 °C.

The compound `CC(C)(C)C(=Cc1ccc(Cl)cc1Cl)Cn1cncn1` came in with a melting point of 78 °C.

With `CCc1ccc(Cc2cc(Br)cc(Br)c2O)cc1`, the melting point lay in the range of 90 to 91.5 °C.

`COc1ccc2c(Cl)noc2c1Br` gave a melting point of 134 to 135 °C.

The compound `Cc1c(SCCCN2CCN(Cc3ccc(Cl)s3)CC2)ccnc1CSc1nc2cc(F)c(F)cc2[nH]1` showed a melting point of 79 to 82 °C.

Compound `CN(C(=O)c1cnn(C)c1C(=O)Nc1ccn2nc(N3CCOCC3)nc2c1)C1CC1` registered a melting point of 172 to 175 °C.

For `c1ccc(N=c2sc3ccccc3s2)cc1`, the melting point fell in the range of 67 to 68 °C.

Consider `O=Cc1c(Cl)cc(OCc2ccccc2)cc1OCc1ccccc1`, for which the melting point was 85 to 86 °C.

Compound `O=C(NC[C@H]1CN(c2ccc3c(c2)CCCc2cnn(C(=O)c4ccccc4)c2-3)C(=O)O1)c1ccccc1` gave a melting point of 75 to 95 °C.

For `CCCCc1nnc(SCc2ccc(OC)cc2)n1Cc1ccc(OC(C(=O)O)c2ccccc2)cc1` (centres undefined), the melting point is 78 to 79 °C.

`CN1CCC(C2(O)c3ccccc3Sc3cc(F)ccc32)CC1` (centres undefined): the melting point is 120 to 130 °C.

As for `Cc1ccc(Oc2ccc(NC(=O)Nc3cc(C(C)(C)C)n[nH]3)cc2)cc1`, the melting point came to 204 °C.

Compound `COc1cn(-c2ccc(-n3cc(F)c(F)c3)cc2F)nc(-c2ccnn2-c2ccccc2)c1=O` showed a melting point of 212 to 214 °C.

Consider `O=C(c1ccccc1Cl)N1Cc2c(-c3noc(C4CC4)n3)ncn2-c2ccccc21`, for which the melting point fell in the range of 254 to 256 °C.

Take `CN(C)C(=C[N+](=O)[O-])NCc1ccc(Cl)cc1`: the melting point was 133 to 135 °C.

For the compound `O=C1C(=O)N(c2cccc3ccccc23)C(=O)N1c1ccccc1`, the melting point fell in the range of 105 to 108 °C.

As to `CCOC(=O)C1=Cc2cc(Cl)ccc2OC1C(F)(F)F` (centres undefined), the melting point was 62 to 64 °C.

Regarding `CCc1cn(C2CC(O)C(CNC(=O)C(C)Sc3ccc(Cl)cc3Cl)O2)c(=O)[nH]c1=O` (centres undefined), the melting point is 218 to 220 °C.
